Results reported in BindingDB's records for doi:10.1021/acs.jmedchem.9b00068 (University of Michigan, 2019).

Assays:
[1] = molecular target: T1, Eukaryotic translation initiation factor 4E (Homo sapiens, UniProt P06730); assay: Binding affinity to N-terminal 10His-tagged m7GDP-bound recombinant human eIF4E expressed in Escherichia coli BL21 (DE3) cells assessed as dissociation constant at 25 degreeC in presence 225 to 1000 mM of NaCl by surface plasmon resonance analysis
[2] = molecular target: T1, Eukaryotic translation initiation factor 4E; assay: Binding affinity to N-terminal 10His-tagged m7GDP-bound recombinant human eIF4E expressed in Escherichia coli BL21 (DE3) cells assessed as dissociation constant at 25 degreeC by surface plasmon resonance analysis

T1 sequence (P06730 whole entry): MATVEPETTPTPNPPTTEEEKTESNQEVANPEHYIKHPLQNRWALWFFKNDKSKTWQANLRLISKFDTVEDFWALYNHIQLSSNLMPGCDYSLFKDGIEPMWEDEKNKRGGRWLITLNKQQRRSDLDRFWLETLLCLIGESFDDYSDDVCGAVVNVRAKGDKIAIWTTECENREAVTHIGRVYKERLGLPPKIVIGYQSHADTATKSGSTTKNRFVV

Row | Kd [2] [nM] | Compound | Kd [1] [nM]
1 |  | CC(=O)N[C@@H](CCCCN)C(=O)N[C@@H](CCCCN)C(=O)N[C@@H](CCCNC(=N)N)C(=O)N[C@@H](Cc1ccc(O)cc1)C(=O)N[C@@H](CC(=O)O)C(=O)N[C@@H](CCCNC(=N)N)C(=O)N[C@@H](CCC(=O)O)C(=O)N[C@@H](Cc1ccccc1)C(=O)N[C@@H](CC(C)C)C(=O)N[C@@H](CC(C)C)C(=O)NCC(=O)N[C@@H](Cc1ccccc1)C(=O)N[C@@H](CCC(N)=O)C(=O)N[C@@H](Cc1ccccc1)C(N)=O | 0.046
2 | 123 | Ac-KKRYSREQLLGL-NH2 | 
